From the METLIN SMRT retention time set (Domingo-Almenara et al. 2019) come the findings set out here.

SMILES strings stand for the structures.

The data set is described as follows: gradient 5% acetonitrile 3 min, to 50% in 2 min, to 85% in 15 min, held 3 min, 100 µL/min. The note with it: column: Zorbax Extend-C18 2.1 x 50 mm; eluents: water / acetonitrile, 0.1% formic acid. An outline of the steps: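 Values are retention times taken from adduct peaks that software picked and an analyst inspected. The pure standards were run as mixtures of ~100 molecules on HPLC linked to a quadrupole time-of-flight mass spectrometer, in positive and negative ionization mode. A Zorbax Extend-C18 column (2.1 × 50 mm, 1.8 μm) was used at 100 μL/min with water and acetonitrile, each including 0.1% formic acid.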
`CC(C)NC(=O)N(CC(=O)N1CCc2sccc2C1COc1ccccc1)C(C)C` (stereo not drawn) showed an RP-LC retention time of 892 s.
The compound `O=C(c1ccsc1)N1CC(c2nc(CCOCC3CCOCC3)no2)C1` returned an RP-LC retention time of 696 s.
The result for `O=C1NCCCn2cc(S(=O)(=O)NCc3ccccc3Cl)cc21` reads 686 s; that for `O=C(NC1CC1)c1ccc(OCC2CCCN(C(=O)c3ccc(F)cc3)C2)cc1` (stereo not drawn), 803 s; that for `Cc1ccc(-c2ccc(-n3nc(C)c(S(=O)(=O)N4CCOCC4)c3C)nn2)cc1`, 972 s.
The result for `COCCN1C(=O)CCc2cc(NC(=O)c3ccc(Cl)s3)ccc21` reads 958 s; that for `CCOc1ccccc1N1CCN(C(=O)C2CCN(c3nccc4c(C)nn(CC)c34)CC2)CC1`, 719 s.
The result for `Cc1ccc(-c2nc(Cn3nnc(C(=O)NCc4ccco4)c3C)c(C)o2)cc1` reads 1000 s; that for `CCOc1cc(Nc2ccc(NC(=O)c3ccco3)cc2)nc(C)n1`, 591 s.
Compound `Cc1c(C(C)(C(=O)O)c2c(C)n(C)c3ccccc23)c2ccccc2n1C` returned an RP-LC retention time of 677 s.
The result for `O=C(NC1CCCC1)C(=O)c1cccn1Cc1ccc(F)cc1` reads 1020 s.
The result for `CSc1ccccc1C(=O)N1CCN(C(=O)C2CC2c2ccc3c(c2)OCO3)CC1` (stereo not drawn) reads 754 s; that for `Cc1ccc(N2CC(c3noc(-c4ccc(C)c(C)c4)n3)CC2=O)cc1` (stereo not drawn), 1150 s.
The compound `CCn1nc(C)c(CCNC(=O)Cn2c3ccccc3c3cnn(C)c(=O)c32)c1C` yielded an RP-LC retention time of 627 s.
In turn, `Cc1nn(-c2ccc(F)cc2)c(C)c1S(=O)(=O)N1CCC(C(=O)NCC2CCCO2)CC1` (stereo not drawn) returned an RP-LC retention time of 742 s.
The result for `COc1ccc(NC(=O)c2[nH]c3cc(C)sc3c2CN(C)C)cc1F` reads 680 s; that for `Cc1ccc(S(=O)(=O)N2CC=C(c3cn(C)c4ncccc34)CC2)cc1`, 990 s.
The same measure for `COc1cccc(S(=O)(=O)N2CCc3c(c(-c4nnc(-c5ccccc5F)o4)nn3C)C2)c1`: 916 s; for `CC1CCN(S(=O)(=O)c2ccc3c(ccn3CC(=O)NCC(C)c3ccccc3)c2)CC1` (stereo not drawn): 1070 s; for `COCCNC(=O)N1CCN(c2cc(-c3cccc(OC)c3)ncn2)CC1`: 593 s.
The compound `COc1cccc(CN2C[C@@H]3C(=O)N(CCCN4CCCC4=O)C(=O)[C@@H]3C2)c1` showed an RP-LC retention time of 598 s.
The result for `O=C(Cc1csc2nc(-c3ccccc3)cn12)NC1CCCc2ccccc21` (stereo not drawn) reads 851 s; that for `CC(C)N1C(=O)c2cccnc2Sc2cc(NC(=O)c3ccc(F)c(F)c3)ccc21`, 925 s.
The result for `CCOc1ccccc1NC(=O)N1CCCC(C)(C(=O)NCc2ccccc2C)C1` (stereo not drawn) reads 860 s; that for `CC(C)NC(=O)N1CCCC(c2cccc(C(=O)NCCN3CCOCC3)c2)C1` (stereo not drawn), 591 s.
The same measure for `CN1C(=O)c2cc(C(=O)N3CCOCC3)nn2CC1(C)C(=O)NCc1ccccc1` (stereo not drawn): 632 s; for `CSc1nnc(-c2nn(C)c3c2CN(C(=O)c2ccc(C)cc2)CC3)n1C`: 716 s; for `Fc1cccc(-n2cc(-c3noc(-c4ccccc4F)n3)nn2)c1`: 1050 s.
Turning to `CC(C)n1c(=O)oc2cc(-c3noc(-c4ccc(C(F)(F)F)cc4)n3)ccc21`, the RP-LC retention time was 1310 s.
For `COc1ccc(-c2cn3ccn(-c4cc(C)c(Cl)cc4OC)c(=O)c3n2)cc1`, the RP-LC retention time worked out at 924 s.
The result for `COc1ccc(N2CCN(c3ncc(S(=O)(=O)c4ccc(C)c(C)c4)c(N)n3)CC2)cc1` reads 966 s.
The compound `Cc1ccc(CN2C(=O)NC3(CCN(C(=O)c4cccs4)CC3)C2=O)cc1` registered an RP-LC retention time of 820 s.
The same measure for `O=C(c1ccc(Br)cc1)N1CCc2cc(-c3ccno3)ccc21`: 1030 s; for `COc1ccc(NC(=O)c2cc3c(=O)oc4ccccc4c3n2C)cc1OC`: 850 s.
The same measure for `Nc1nc(CN2CCN(c3ccccn3)CC2)nc(Nc2ccc(Oc3ccccc3)cc2)n1`: 669 s; for `CCNc1cc(C)nc(N2CCN(C(=O)c3ccccc3)CC2)n1`: 616 s.
The same measure for `COCCN1C(=O)CCc2cc(NS(=O)(=O)c3cccc(F)c3)ccc21`: 748 s; for `COc1ccc(-c2nc3cnccn3c2Nc2cccc(C(=O)NCc3ccco3)c2)cc1`: 741 s.
`Cn1cc(-c2ccccc2)cc1C(=O)O` displayed an RP-LC retention time of 842 s.
In turn, `CCOC(=O)C1=C(CN2CCN(c3ccccn3)CC2)NC(=O)NC1c1cccc(OC)c1OC` (stereo not drawn) registered an RP-LC retention time of 615 s.
The same measure for `O=C1NCCCCCN(Cc2ccc(F)cc2F)[C@H]2CCC[C@@H]12`: 623 s; for `COc1ccc(-c2noc(Cn3ccn(-c4c(C)cccc4C)c(=O)c3=O)n2)cc1OC`: 797 s.
The result for `Cc1ccc(CNC(=O)CCc2nc3c(C)cccc3c(=O)n2C)cc1C` reads 892 s; that for `Cc1ccc(N2CC(c3nc(Cn4cnc5ccccc5c4=O)no3)CC2=O)cc1C` (stereo not drawn), 789 s; that for `O=c1ccc(-n2cccn2)nn1CCNS(=O)(=O)c1ccc(F)c(Cl)c1`, 722 s.
The result for `N#CCCN1CCN(c2cc(C(=O)O)c3cc(NC(=O)c4cccc(Cl)c4)ccc3n2)CC1` reads 614 s; that for `O=C(CC(c1ccccc1)c1ccccc1)N1CC(c2nc(-c3ccccc3)no2)C1`, 1020 s; that for `CC(=O)N1CCN(c2nc3c(s2)CC(C(=O)Nc2cccc(Cl)c2)CC3)CC1` (stereo not drawn), 628 s.
Compound `CC1=C(C(=O)Nc2cccc(C(=O)N3CCN(c4ccccc4)CC3)c2)SCCO1` registered an RP-LC retention time of 873 s.
The same measure for `Cn1c(N2CCCC(C(=O)N3CCN(c4ncccn4)CC3)C2)cc(=O)n(C)c1=O` (stereo not drawn): 618 s.
The same measure for `CCCCS(=O)(=O)c1cc2c(cc1NC(=O)c1ccccc1C)n(C)c(=O)n2C`: 853 s; for `COc1ccc(-c2nnc(-c3cc(S(=O)(=O)N4CCC(C)CC4)ccc3Cl)o2)cc1`: 1160 s; for `CCCc1cc(N2CCN(C(=O)c3ccsc3)CC2)nc2nnc(C)n12`: 611 s.
The result for `Cc1ccc(-n2c(N3CCCC(C(=O)NCc4ccc(C)o4)C3)nc3ccsc3c2=O)cc1` (stereo not drawn) reads 893 s.
Compound `COc1cc2c(c3oc4cccc(O)c4c(=O)c13)C1C=CO[C@@H]1O2` (stereo partly drawn) yielded an RP-LC retention time of 989 s.
The result for `COC(=O)c1ccccc1Nc1c(-c2ccc(Br)cc2)nc2cnccn12` reads 1130 s.
In turn, `O=C(NCc1ccccc1)C1CCN(S(=O)(=O)c2cc(C(=O)N3CCCCCC3)cs2)CC1` yielded an RP-LC retention time of 866 s.
The result for `O=C(NCCCN1CCCCC1)C1CCN(c2cncnc2N2CCCCC2)CC1` reads 569 s.
`COc1cccc(CC(=O)N2CCC3(CC2)NCc2ccccc2-n2ccnc23)c1` showed an RP-LC retention time of 572 s.
Take `CCc1c(C)nc2ncnn2c1NC(C)C`: the RP-LC retention time is 670 s.
The result for `COc1ccc(F)cc1S(=O)(=O)NC1CCc2nnc(C)n2CC1` (stereo not drawn) reads 613 s.
The result for `CC1CCN(c2nnc(-n3cccc3CN3CCN(c4ccccn4)CC3)s2)CC1` reads 658 s; that for `COc1cccc(NC(=O)N(C)CCc2noc(COc3ccc(F)cc3)n2)c1`, 856 s.
The same measure for `O=c1n(Cc2cc(F)cc(F)c2)nc2c(S(=O)(=O)N3CCCCCC3)cccn12`: 973 s.
`CC(=O)N1CCC([C@@H]2CN(C(=O)C3(C)CCCCC3)C[C@H]2CO)CC1` displayed an RP-LC retention time of 631 s.
`O=C(Nc1ccc(F)c(Cl)c1)C1CCCN(c2ccnc(-c3ccc(F)cc3)n2)C1` (stereo not drawn): the RP-LC retention time was 780 s.
The same measure for `Cc1ccc2nc(NC(=O)CN3CCc4nc(NC(=O)C5CC5)sc4C3)sc2c1`: 600 s; for `O=C(CN1CC=C(c2cnn(-c3ccccc3)c2)CC1)N1CCN(c2ccccc2)CC1`: 702 s.
The result for `N#CC1(C(=O)NCCc2cccs2)CC1` reads 708 s; that for `CCN(CC)C(=O)CN(C)C(=O)c1cc2c(s1)N(CC1CC1)CCCC2`, 947 s; that for `CC(C)c1ccc(NC(=O)Cn2nc(N3CCOCC3)c3ccccc3c2=O)cc1`, 905 s.
The result for `Cc1noc(C)c1S(=O)(=O)N1CCCN(S(=O)(=O)c2ccccc2)CCC(=O)NCC1` reads 752 s; that for `O=C(CCc1csc(NC(=O)c2cccs2)n1)NCCc1c[nH]c2ccccc12`, 755 s; that for `Cc1ccccc1-c1noc(C2CCCN2C(=O)Nc2ccccc2F)n1` (stereo not drawn), 1020 s.
Take `Cc1cc(Cl)ccc1S(=O)(=O)N1CCc2nn(CC(C)C)c(=O)n2CC1`: the RP-LC retention time came out at 919 s.
The result for `CCOC(=O)c1c(-c2cccs2)csc1NC(=O)CSc1ncn[nH]1` reads 815 s.
The same measure for `CS(=O)(=O)NCCc1ccc(CC2CCN(S(=O)(=O)c3cccnc3)CC2)cc1`: 814 s.
The result for `COCCN1C(=O)[C@H]2CN(Cc3ccc(F)c(Br)c3)C[C@H]2C1=O` reads 680 s.
